From US6054478A, “Antifungal sordaridin derivatives” (Glaxo Wellcome S.A., priority 1994, dated 2000)
≈ marks a conversion by molar mass, not a printed value.

Tests used:
[1] = tested on: fungal organisms; conditions: cited from earlier work; for antifungal activity (reported): reported in the literature; for antifungal activity and spectrum of action: when tested against a battery of fungal organisms
[2] = adverse effects in treated mice; assay type: in vivo, male mice; conditions: 50 mg/kg sc
Excerpt: (§1) The compounds of the invention are essentially non-toxic at therapeutically useful levels.

[3] = tested on: C. psuedotropicalis 371E; experiment: in vitro antifungal MIC, two-fold serial dilution; assay type: cell-based, Candida pseudotropicalis; conditions: Kluyveromyces marxianus, 24 to 48 hours at 37° C
Experimental: (§2) The in vitro evaluation of the anti-fungal activity of compounds of the invention was performed on liquid or solid medium by the anti-fungal two-fold serial dilution technique of determining the minimum inhibitory concentration (MIC) of anti-fungal agent that inhibited development of growth after 24 to 48 hours of incubation at 37° C. In practice, a series of agar plates or broth microdilution panels containing two-fold dilutions of anti-fungal agent tested were inoculated with a standard culture of a clinically relevant pathogen, for example, candida albicans. The agar plates or broth microdulution panels were then examined for the presence or absence of growth of the fungus and the appropriate MIC values were noted. Compounds of formula (I) have been tested for anti fungal activity in a standard in vitro screen and the minimum inhibiting concentration (MIC; μg/ml) determined for each compound against a variety of clinically relevant pathogens.

[4] = tested on: C. albicans 1208E; experiment: in vitro antifungal MIC, two-fold serial dilution; assay type: cell-based; conditions: Candida albicans, 24 to 48 hours at 37° C
Experimental: as §2

[5] = tested on: C. tropicalis 2808E; experiment: in vitro antifungal MIC, two-fold serial dilution; assay type: cell-based; conditions: Candida tropicalis, 24 to 48 hours at 37° C
Experimental: as §2

[6] = tested on: C. glabrata 2376E; experiment: in vitro antifungal MIC, two-fold serial dilution; assay type: cell-based; conditions: Nakaseomyces glabratus, 24 to 48 hours at 37° C
Experimental: as §2

[7] = tested on: C. albicans 2402E; experiment: in vitro antifungal MIC, two-fold serial dilution; assay type: cell-based; conditions: Candida albicans, 24 to 48 hours at 37° C
Experimental: as §2

[8] = tested on: C. albicans 4711; experiment: in vitro antifungal MIC, two-fold serial dilution; assay type: cell-based; conditions: Candida albicans, 24 to 48 hours at 37° C
Experimental: as §2

[9] = tested on: C. neoformans 2867E; experiment: in vitro antifungal MIC, two-fold serial dilution; assay type: cell-based; conditions: Cryptococcus neoformans, 24 to 48 hours at 37° C
Experimental: as §2

[10] = tested on: C. glabrata 2375E; experiment: in vitro antifungal MIC, two-fold serial dilution; assay type: cell-based; conditions: Nakaseomyces glabratus, 24 to 48 hours at 37° C
Experimental: as §2

[11] = tested on: C. albicans 2005E; experiment: in vitro antifungal MIC, two-fold serial dilution; assay type: cell-based; conditions: Candida albicans, 24 to 48 hours at 37° C
Experimental: as §2

[12] = tested on: C. albicans 4711E; experiment: in vivo protection of mice infected with C. albicans; set-up: species or system Candida albicans; male mice; conditions: 50 mg/kg sc
Excerpt: The in vivo evaluation of compounds of formula (I) can be carried out at a series of dose levels by administration (e.g. subcutaneously, orally, intraperitoneally or intravenously) to mice or rats inoculated with a strain of Candida albicans. Untreated animals die within 3 to 9 days and the dose level at which the test compound provides 50% protection against the lethal effect of the infection is noted.
as §1

Structure (SMILES)	MIC [3] [ng/mL]	MIC [4] [µg/mL]	MIC [5] [µg/mL]	MIC [6] [µg/mL]	MIC [7] [µg/mL]	MIC [8] [µg/mL]	MIC [9] [µg/mL]	MIC [10] [µg/mL]	MIC [11] [µg/mL]	antifungal activity (reported) [1]	antifungal activity and spectrum of action [1]	adverse effects in the treated mice [2]	protection of male mice infected with C. albicans 4711E [12]
COC1C(C)OC(OCC23CC4C(C)CCC4C4(C=O)CC2C=C(C(C)C)C43C(=O)O)C(O)C1O (stereo not drawn) [sordarin]	–	–	–	–	–	–	–	–	–	fungistatic activity	only moderately active and have limited spectra of action	–	–
CCCCCCCC(=O)OC1C(O)C(OCC23CC4C(C)CCC4C4(C=O)CC2C=C(C(C)C)C43C(=O)O)OC(C)C1OC [Example 24, [1R-(1α, 3aβ, 4β, 4aβ, 7β, 7aα, 8aβ,)] 8a-[(6-Deoxy-4-O-methyl-3'-O-octanoyl-β-D-altropyranosyloxy)methyl]-4-formyl-4,4a,5,6,7,7a,8,8a-octahydro-7-methyl-3-(1-methylethyl)-1,4-methano-s-indacene-3a(1H)-carboxylic acid]	4 (≈ 0.00646 µM)	0.6 (≈ 0.97 µM)	0.06 (≈ 0.097 µM)	500 (≈ 808 µM)	0.03 (≈ 0.0485 µM)	–	0.25 (≈ 0.404 µM)	500 (≈ 808 µM)	≤ 0.001	–	–	–	–
CC=CC=CC(=O)OC1C(O)C(OCC23CC4C(C)CCC4C4(C=O)CC2C=C(C(C)C)C43C(=O)O)OC(C)C1OC (stereo not drawn) [zofimarin]	–	–	–	–	–	–	–	–	–	antifungal activity	only moderately active and have limited spectra of action	–	–
COC1C(C)OC(OCC23CC4C(C)CCC4C4(C=O)CC2C=C(C(C)C)C43C(=O)O)C(O)C1N=[N+]=[N-] [Example 10, [1R-(1α, 3aβ, 4β, 4aβ, 7β, 7aα, 8aβ)] 8a-[(3-Azido-3,6-dideoxy-4-O-methylβ-D-altropyranosyloxy)methyl]-4-formyl-4,4a,5,6,7,7a,8,8a-octahydro-7-methyl-3-(1-methylethyl)-1,4-methano-s-indacene-3a(1H)-carboxylic acid]	–	1 (≈ 1.93 µM)	–	62 (≈ 120 µM)	1 (≈ 1.93 µM)	0.5 (≈ 0.966 µM)	4 (≈ 7.73 µM)	62 (≈ 120 µM)	0.12 (≈ 0.232 µM)	–	–	no adverse effects were observed	active in protecting male mice
CCCCCCOC1C(O)C(OCC23CC4C(C)CCC4C4(C=O)CC2C=C(C(C)C)C43C(=O)O)OC(C)C1OC [Example 3, [1R-(1α, 3aβ, 4β4aβ, 7β, 7aα, 8aβ)] 8a-[(6-Deoxy-3-O-hexyl-4-O-methyl-β-D-altropyranosyloxy)methyl]-4-formyl-4,4a,5,6,7,7a,8,8a-octahydro-7-methyl-3-(1-methylethyl)-1,4-methano-s-indacene-3a(1H)-carboxylic acid]	250 (≈ 0.433 µM)	4 (≈ 6.94 µM)	1 (≈ 1.73 µM)	> 125	2 (≈ 3.47 µM)	–	31 (≈ 53.7 µM)	> 125	0.25 (≈ 0.433 µM)	–	–	–	–
CC(=O)OC1C(C)OC(OCC23CC4C(C)CCC4C4(C=O)CC2C=C(C(C)C)C43C(=O)O)CC1SC(C)=O [Example 42, [1R-(1α, 3aβ, 4β, 4aβ, 7β, 7aα, 8aβ)] 8a-(((2,3,6-Trideoxy-4-O-acetyl-3-acetylthio-b-D-allopyranosyl)oxy)methyl)-4-formyl-4,4a,5,6,7,7a,8,8a-octahydro-7-methyl-3-(1-methylethyl)-1,4-methano-s-indacene-3a(1H)-carboxylic acid]	≤ 1	0.06 (≈ 0.107 µM)	1 (≈ 1.78 µM)	31 (≈ 55.1 µM)	0.06 (≈ 0.107 µM)	0.015 (≈ 0.0267 µM)	> 125	31 (≈ 55.1 µM)	≤ 0.001	–	–	–	–

The next lines start with results.

MIC [3] [ng/mL]	MIC [4] [µg/mL]	MIC [5] [µg/mL]	MIC [6] [µg/mL]	MIC [7] [µg/mL]	MIC [8] [µg/mL]	MIC [9] [µg/mL]	MIC [10] [µg/mL]	MIC [11] [µg/mL]	Structure (SMILES)	antifungal activity (reported) [1]	antifungal activity and spectrum of action [1]	adverse effects in the treated mice [2]	protection of male mice infected with C. albicans 4711E [12]
4 (≈ 0.00771 µM)	0.015 (≈ 0.0289 µM)	0.003 (≈ 0.00578 µM)	8 (≈ 15.4 µM)	0.008 (≈ 0.0154 µM)	0.004 (≈ 0.00771 µM)	125 (≈ 241 µM)	8 (≈ 15.4 µM)	≤ 0.001	CCCOC1CC(OCC23CC4C(C)CCC4C4(C=O)CC2C=C(C(C)C)C43C(=O)O)OC(C)C1OC [Example 7, [1R-(1α, 3aβ, 4β, 4aβ, 7β, 7aα, 8aβ)] 8a-[(2,6-Dideoxy-4-O-3-O-propyl-β-D-alopyranosyloxy)methyl]-4-formyl-4,4a,5,6,7,7a,8,8a-octahydro-7-methyl-3-(1-methylethyl)-1,4-methano-s-indacene-3a(1H)-carboxylic acid]	–	–	no adverse effects were observed	active in protecting male mice
≤ 1	≤ 0.001	0.004 (≈ 0.00797 µM)	1 (≈ 1.99 µM)	≤ 0.001	≤ 0.001	31 (≈ 61.8 µM)	1 (≈ 1.99 µM)	≤ 0.001	COC1C(N=[N+]=[N-])CC(OCC23CC4C(C)CCC4C4(C=O)CC2C=C(C(C)C)C43C(=O)O)OC1C [Example 15, [1R-(1α, 3aβ, 4β, 4aβ, 7β, 7aα, 8aβ)] 8a-[(3-Azido-4-O-methyl-2,3,6-trideoxy-β-D-allopyranosyloxy)methyl]-4-formyl-4,4a,5,6,7,7a,8,8a-octahydro-7-methyl-3-(1-methylethyl)-1,4-methano-s-indacene-3a(1)-carboxylic acid]	–	–	–	–
8 (≈ 0.0174 µM)	0.06 (≈ 0.13 µM)	0.25 (≈ 0.543 µM)	8 (≈ 17.4 µM)	0.06 (≈ 0.13 µM)	–	62 (≈ 135 µM)	8 (≈ 17.4 µM)	0.004 (≈ 0.00868 µM)	COC1CCC(OCC23CC4C(C)CCC4C4(C=O)CC2C=C(C(C)C)C43C(=O)O)OC1C [Example 39, [1R-(1α, 3aβ, 4aβ, 7β, 7aα, 8aβ)] 8a-[(2,3,6-Trideoxy-4-O-methyl-β-D-allopyranosyloxy)methyl]-4-formyl-4,4a,5,6,7,7a,8,8a-octahydro-7-methyl-3-(1-methylethyl)-1,4-methano-s-indacene-3a(1H)-carboxylic acid]	–	–	–	–
1000 (≈ 1.91 µM)	1 (≈ 1.91 µM)	2 (≈ 3.83 µM)	31 (≈ 59.3 µM)	1 (≈ 1.91 µM)	1 (≈ 1.91 µM)	0.05 (≈ 0.0957 µM)	31 (≈ 59.3 µM)	0.25 (≈ 0.478 µM)	COC1C(C)OC(OCC23CC4C(C)CCC4C4(C=O)CC2C=C(C(C)C)C43C(=O)O)C(O)C1SC [Example 11, [1R-(1α, 3aβ, 4β, 4aβ, 7β, 7aα, 8aβ)] 8a-[(3,6-Dideoxy-4-O-methyl-3-methylthio-β-D-altropyranosyloxy)methyl]-4-formyl-4,4a,5,6,7,7a,8,8a-octahydro-7-methyl-3-(1-methylethyl)-1,4-methano-s-indacene-3a(1H)-carboxylic acid]	–	–	–	–
2000 (≈ 3.86 µM)	8 (≈ 15.4 µM)	16 (≈ 30.8 µM)	> 125	8 (≈ 15.4 µM)	4 (≈ 7.71 µM)	125 (≈ 241 µM)	> 125	2 (≈ 3.86 µM)	CCCOC1C(C)OC(OCC23CC4C(C)CCC4C4(C=O)CC2C=C(C(C)C)C43C(=O)O)CC1OC [Example 9, [1R-(1α, 3aβ, 4β, 4aβ, 7β, 7aα, 8aβ)] 8a-[(2,6-Dideoxy-3-O-methyl-4-O-propyl-β-D-allopyranosyloxy)methyl]-4-formyl-4,4a,5,6,7,7a,8,8a-octahydro-7-methyl-3-(1-methylethyl)-1,4-methano-s-indacene-3a(1H)-carboxylic acid]	–	–	–	–
120 (≈ 0.23 µM)	0.25 (≈ 0.48 µM)	2 (≈ 3.84 µM)	16 (≈ 30.7 µM)	0.25 (≈ 0.48 µM)	0.12 (≈ 0.23 µM)	31 (≈ 59.5 µM)	16 (≈ 30.7 µM)	0.03 (≈ 0.0576 µM)	COCOC1CC(OCC23CC4C(C)CCC4C4(C=O)CC2C=C(C(C)C)C43C(=O)O)OC(C)C1OC [Example 8, [1R-(1α, 3aβ, 4β, 4aβ, 7β, 7aα, 8aβ)] 8a-[(2,6-Dideoxy-4-O-methyl-3-O-methyloxymethyl-β-D-allopyranosyloxy)methyl]-4-formyl-4,4a,5,6,7,7a,8,8a-octahydro-7-methyl-3-(1-methylethyl)-1,4-methano-s-indacene-3a(1H)-carboxylic acid]	–	–	–	–
≤ 1	≤ 0.001	0.004 (≈ 0.00815 µM)	1 (≈ 2.04 µM)	≤ 0.001	≤ 0.001	31 (≈ 63.2 µM)	1 (≈ 2.04 µM)	≤ 0.001	COC1CC(OCC23CC4C(C)CCC4C4(C=O)CC2C=C(C(C)C)C43C(=O)O)OC(C)C1OC [Example 5, [1R-(1α, 3aβ, 4β, 4aβ, 7β, 7aα, 8aβ)] 8a-[(2,6-Dideoxy-3,4-O-dimethyl-β-D-allopyranosyloxy)methyl]-4-formyl-4,4a,5,6,7,7a,8,8a-octahydro-7-methyl-3-(1-methylethyl)-1,4-methano-s-indacene-3a(1H)-carboxylic acid]	–	–	–	–
